From article PMC6348443 (Journal of Medicinal Chemistry, 2018)
Entries after “also recorded” stand apart in the source; their conditions may differ. Where a name gives a salt, the structure may show the parent alone. Read-outs that look alike come from different tables or passages of the source.

Tests used:
MOR [1] = target: T1, MOR (Rattus norvegicus, UniProt P33535); assay: competition radioligand binding, rat brain membranes, [3H]DAMGO; settings: for Ki: rat brain membranes, read-out: opioid receptor binding Ki MOR; for increase in MOR binding affinity vs comparator: 17b vs 4b, 16a/b vs 7a/b, 22a/b vs 7a, 7b and 9b, 14a vs 14b
T1 construct: Membranes were prepared from Sprague-Dawley rat brains or guinea-pig brains according to the described procedures; tissue Labortierkunde und Laborgenetik, Medizinische Universität Wien; host or cells: Sprague-Dawley rat brain without cerebella

DOR [2] = target: T2, DOR (Rattus norvegicus, UniProt P33533); assay: competition radioligand binding, rat brain membranes, [3H][Ile5,6]deltorphin II; settings: rat brain membranes; read-out: opioid receptor binding Ki DOR
T2 construct: Membranes were prepared from Sprague-Dawley rat brains or guinea-pig brains according to the described procedures; tissue Labortierkunde und Laborgenetik, Medizinische Universität Wien; host or cells: Sprague-Dawley rat brain without cerebella

KOR [3] = target: T3, KOR (Cavia porcellus, UniProt P41144); assay: competition radioligand binding, guinea-pig brain membranes, [3H]U69,593; settings: for Ki: guinea-pig brain membranes, read-out: opioid receptor binding Ki KOR
T3 construct: Membranes were prepared from Sprague-Dawley rat brains or guinea-pig brains according to the described procedures; tissue Labortierkunde und Laborgenetik, Medizinische Universität Wien; host or cells: guinea-pig brain without cerebella

MOR [4] = target: T4, MOR (Homo sapiens, UniProt P35372); assay: [35S]GTPγS binding assay, CHO-hMOR membranes; assay type: biochemical; settings: for Emax: read-out: MOR % stim.; for functional profile at MOR (full/partial agonist): full agonist ≥85% of the response to DAMGO
T4 construct: host or cells: CHO (CHO-hMOR)

DOR [5] = target: T5, DOR (Homo sapiens, UniProt P41143); assay: [35S]GTPγS binding assay, CHO-hDOR membranes; assay type: biochemical; settings: for EC50: [35S]GTPγS, CHO human DOR membranes; for Emax: relative to reference full agonist DPDPE, read-out: DOR % stim.; for increased agonist potency at DOR vs MOR: [35S]GTPγS EC50; for functional profile at DOR (full/partial agonist): full agonist ≥85% of the response to DPDPE
T5 construct: host or cells: CHO (CHO-hDOR)

KOR [6] = target: T6, KOR (Homo sapiens, UniProt P41145); assay: [35S]GTPγS binding assay, CHO-hKOR membranes; assay type: biochemical; settings: for EC50: [35S]GTPγS, CHO human KOR membranes, read-out: KOR EC50; for Emax: relative to reference full agonist U69,593, read-out: KOR % stim.; for functional profile at KOR (full/partial agonist): partial agonist <85% of the response to U69,593
T6 construct: host or cells: CHO (CHO-hKOR)

male CD1 mice = assay: acetic acid-induced writhing assay after sc administration; assay type: in vivo, mouse; settings: for ED50: Mus musculus, 0.5 h, read-out: ED50 (95% CI), mice, sc, inhibition of writhing 30 min after drug administration
MOR [7] = target: T4, MOR; assay: competition radioligand binding, CHO cell membranes expressing human MOR, [3H]DAMGO
Protocol: (§1) Membranes from CHO cells expressing human opioid receptors were prepared in 50 mM Tris-HCl buffer (pH 7.7) according to a previously described procedure.[64] Cells expressing human opioid receptors grown at confluence were removed from the culture plates by scraping, homogenized in 50 mM Tris buffer (pH 7.7), using a Polytron homogenizer, then centrifuged once and washed by an additional centrifugation at 27 000g for 15 min, at 4 °C. The final pellet was resuspended in Tris buffer and stored at −80 °C until use. Protein content of brain and cell membrane preparation homogenates was determined by the method of Bradford using bovine serum albumin as the standard.[65]
(§2) Rat brain membranes were incubated with either [^3H]DAMGO (1 nM, 45 min, 35 °C) or [^3H][Ile^5,6]deltorphin II (0.5 nM, 45 min, 35 °C) for labeling MOR or DOR receptors, respectively. Guinea-pig brain membranes were incubated with [^3H]U69,593 (1 nM, 30 min, 30 °C) for labeling KOR. Binding assays with CHO cell membranes were conducted at 25 °C for 60 min using [^3H]DAMGO (1 nM) or [^3H]diprenorphine (0.2 nM) for labeling MOR or DOR, respectively. Nonspecific binding was determined using 10 μM naloxone (rodent brain) or 1–10 μM of the unlabeled counterpart of each radioligand (CHO cells). Reactions were terminated by rapid filtration through Whatman glass fiber GF/C filters. Filters were washed three times with 5 mL of ice-cold 50 mM Tris-HCl buffer (pH 7.4) using a Brandel M24R cell harvester (Gaithersburg, MD). Radioactivity retained on the filters was counted by liquid scintillation counting using a Beckman Coulter LS6500 (Beckman Coulter Inc., Fullerton, CA). All binding experiments were performed in duplicate and repeated at least three times.
(§3) aDetermined in competition radioligand binding assays using CHO cell membranes expressing
(§4) human MOR and DOR. Values represent the mean ± SEM of three independent experiments each

DOR [8] = target: T5, DOR; assay: competition radioligand binding, CHO cell membranes expressing human DOR, [3H]diprenorphine
Protocol: as §1, §2, §3, §4

[9] = tested on: peripheral opioid receptors; assay: antagonism by naloxone methiodide in the acetic acid-induced writhing assay; assay type: in vivo, mouse; settings: sc co-administration with naloxone methiodide 1 mg/kg; agonist 50 or 200 μg/kg sc; 30 min
Text: To determine whether targeted 6-amino acid and 6-dipeptide analogues inhibit writhing behavior in mice through peripheral opioid receptors activation, we used naloxone methiodide.[27]
Values are shown as mean of writhes ± SEM (n = 6–7 mice per group). ***P < 0.001 vs control group; ^#P < 0.05, ^##P < 0.01 and ^###P < 0.001 vs agonist treated group, ANOVA with Tukey’s post hoc test.
Writhing was induced in male CD1 mice by ip injection of a 0.6% acetic acid aqueous solution as described previously.[48],[62] Groups of mice were administered sc different doses of test compound or saline (control), and 5 min prior to testing (25 min after drug or saline), each animal received an ip injection of acetic acid solution. Each mouse was placed in individual transparent Plexiglas chambers, and the number of writhes was counted during a 10 min observation period. […] For the antagonism study, naloxone methiodide was sc co-administered with the respective opioid agonist, and writhing was assessed as described above.

[10] = [35S]GTPγS, CHO human MOR membranes, read-out: MOR EC50
[11] = relative to reference full agonist DAMGO

SMILES | Ki (MOR [1]) | increase in MOR binding affinity vs comparator (MOR [1]; rat brain) | Ki (DOR [2]) | Ki (KOR [3]) | EC50 (MOR [4]; [10]) | Emax (MOR [4]; [11]) | EC50 (DOR [5]) | Emax (DOR [5]) | EC50 (KOR [6]) | Emax (KOR [6]) | ED50 (male CD1 mice) | Ki (MOR [7]) | Ki (DOR [8]) | functional profile at MOR (full/partial agonist) (MOR [4]) | effect of naloxone methiodide on antinociceptive effect [9] | functional profile at KOR (full/partial agonist) (KOR [6]) | further results
CO[C@@]12CCC(N[C@@H](CCC(=O)O)C(=O)O)[C@@H]3Oc4c(O)ccc5c4[C@@]31CCN(C)[C@@H]2C5 (stereo in doubt) [Compound 14a, (2S)-2-[(4,5α-Epoxy-3-hydroxy-14β-methoxy-17-methylmorphinan-6β-yl)-amino]pentanedioic Acid Dihydrochloride] | 1.45 ± 0.09 nM | 8 times | 9.03 ± 0.7 nM | 87.2 ± 4.2 nM | 3.11 ± 1.32 nM | 105 ± 3% | 10.8 ± 2.1 nM | 98 ± 3% | 1170 ± 448 nM | 68 ± 5% | 0.0361 mg/kg | 3.29 ± 0.61 nM | 24 ± 11.8 nM |  |  |  | increased KOR affinity vs 6β analogue 14b (KOR [3]; guinea-pig brain): 14 times
CO[C@@]12CC[C@@H](N[C@@H](Cc3ccccc3)C(=O)O)[C@@H]3Oc4c(O)ccc5c4[C@@]31CCN(C)[C@@H]2C5 [Compound 4b] |  |  |  |  | 6.76 ± 3.16 nM | 99% | 0.48 ± 0.16 nM | 94 ± 8% | 1170 ± 505 nM | 81 ± 9% | 0.579 mg/kg | 4.15 ± 0.47 nM | 1.12 ± 0.23 nM | full agonist |  |  | MOR % stim. (MOR [4]; [11]): 99 ± 8%; increased agonist potency at DOR vs MOR (DOR [5]): 14 times
CO[C@@]12CC[C@H](N[C@@H](CCCCN)C(=O)O)[C@@H]3Oc4c(O)ccc5c4[C@@]31CCN(C)[C@@H]2C5 [Compound 8a, (2S)-6-Amino-2-[(4,5α-epoxy-3-hydroxy-14β-methoxy-17-methylmorphinan-6α-yl)amino]hexanoic Acid Trihydrochloride] |  |  |  |  | 2.25 ± 0.07 nM | 90 ± 8% | 152 ± 2 nM | 106 ± 4% | 118 ± 26 nM | 79 ± 13% | 0.0206 mg/kg |  |  |  | reversed |  | 
CO[C@@]12CC[C@@H](N[C@@H](Cc3c[nH]c4ccccc34)C(=O)O)[C@@H]3Oc4c(O)ccc5c4[C@@]31CCN(C)[C@@H]2C5 [Compound 10b, (2S)-2-[(4,5α-Epoxy-3-hydroxy-14β-methoxy-17-methylmorphinan-6β-yl)-amino]-3-(1H-indolo-3yl)propionic Acid Dihydrochloride] |  |  |  |  | 1.64 ± 0.43 nM | 101 ± 11% | 2.18 ± 0.72 nM | 96 ± 5% | 181 ± 49 nM | 87 ± 8% | 0.0927 mg/kg |  |  |  | reversed; also recorded: antagonized | full agonists | 
CO[C@@]12CC[C@@H](N[C@@H](CCC(=O)O)C(=O)O)[C@@H]3Oc4c(O)ccc5c4[C@@]31CCN(C)[C@@H]2C5.Cl.Cl [Compound 14b, (2S)-2-[(4,5α-Epoxy-3-hydroxy-14β-methoxy-17-methylmorphinan-6β-yl)amino]pentanedioic Acid Dihydrochloride] | 11.6 ± 0.7 nM |  | 7.64 ± 0.64 nM | 1250 ± 70 nM | 12.7 ± 4.7 nM | 98 ± 4% | 4.6 ± 1.79 nM | 101 ± 3% | 2230 ± 238 nM | 76 ± 0.7% |  | 28.7 ± 7.9 nM | 18 ± 3.5 nM |  |  |  | increased agonist potency at DOR vs MOR (DOR [5]): 2–4 times
CO[C@@]12CC[C@H](N[C@H](Cc3ccccc3)C(=O)O)[C@@H]3Oc4c(O)ccc5c4[C@@]31CCN(C)[C@@H]2C5 [Compound 17a, (2R)-2-[(4,5α-Epoxy-3-hydroxy-14β-methoxy-17-methyl-morphinan-6α-yl)-amino]-3-phenylpropionic Acid Dihydrochloride] | 0.61 ± 0.01 nM |  | 3.69 ± 0.59 nM | 76.4 ± 9.3 nM | 0.77 ± 0.24 nM | 96 ± 4% | 8.36 ± 0.28 nM | 95 ± 10% | 215 ± 32 nM | 80 ± 11% | < 0.02 mg/kg | 0.85 ± 0.01 nM | 5.26 ± 0.42 nM |  |  | full agonists | EC50 (MOR [4]): < 1 nM; ED50 (95% CI) (male CD1 mice; mice, inhibition of writhing 30 min after drug administration): 18.1 (8.37–39.2) μg/kg
CO[C@@]12CC[C@@H](N[C@H](Cc3ccccc3)C(=O)O)[C@@H]3Oc4c(O)ccc5c4[C@@]31CCN(C)[C@@H]2C5 [Compound 17b, (2R)-2-[(4,5α-Epoxy-3-hydroxy-14β-methoxy-17-methyl-morphinan-6β-yl)-amino]-3-phenylpropionic Acid Dihydrochloride] | 1.28 ± 0.38 nM | ca. 2 times | 1.19 ± 0.13 nM | 139 ± 23 nM | 0.68 ± 0.29 nM | ~80% | 1.71 ± 0.78 nM | 96 ± 1% | 611 ± 350 nM | 92 ± 10% | 0.25 mg/kg | 1.84 ± 0.14 nM | 2.17 ± 0.26 nM | partial agonist |  | full agonists | EC50 (MOR [4]): < 1 nM
CO[C@@]12CC[C@@H](N[C@H](C(=O)N[C@@H](Cc3ccc(O)cc3)C(=O)O)C(C)C)[C@@H]3Oc4c(O)ccc5c4[C@@]31CCN(C)[C@@H]2C5 [Compound 22b, (2S)-2-[[(4,5α-Epoxy-3-hydroxy-14β-methoxy-17-methylmorphinan-6β-yl)amino]-(2S)-3-methylbutyrylamino]-3-(4-hydroxyphenyl)propionic Acid] | 0.44 ± 0.01 nM | 4 to 7 times | 1.38 ± 0.22 nM | 390 ± 49 nM | 0.16 ± 0.06 nM | ~70% | 1.56 ± 0.83 nM | 89 ± 7% | 1880 ± 594 nM | 63 ± 0.1% |  |  |  | partial agonists |  |  | KOR/MOR selectivity ratio (MOR [1]; from Ki, guinea-pig (KOR) and rat (MOR) brain): 886; lower KOR affinity vs 6α analogue 22a (KOR [3]; guinea-pig brain): about 6 times; increased MOR potency than 1 (MOR [4]; [35S]GTPγS EC50): 24 times; selectivity for MOR over DOR (MOR [4]; [35S]GTPγS EC50): 10 times; functional profile at DOR (full/partial agonist) (DOR [5]): full agonists; Ki (MOR [7]; CHO cell membranes expressing human MOR, read-out: Ki MOR): 0.64 ± 0.07 nM; Ki (DOR [8]; CHO cell membranes expressing human DOR, read-out: Ki DOR): 1.39 ± 0.13 nM
CO[C@@]12CC[C@@H](NCC(=O)NCC(=O)O)[C@@H]3Oc4c(O)ccc5c4[C@@]31CCN(C)[C@@H]2C5 [Compound 23a, 2-[2-[(4,5-Epoxy-3-hydroxy-14β-methoxy-17-methylmorphinan-6β-yl)amino]acetylamino]acetic Acid] |  |  |  |  | 4.39 ± 0.54 nM | 85 ± 9% | 2.84 ± 1.63 nM | 102 ± 7% | 885 ± 298 nM | 75 ± 0.7% | 0.104 mg/kg |  |  | full agonist | antagonized |  | lower affinity at MOR vs 2a (MOR [1]; rat brain): about 5 times; functional profile at DOR (full/partial agonist) (DOR [5]): full agonist; higher antinociceptive potency than morphine (male CD1 mice; writhing assay, mice): 4 times
